Assay [1] has as its target T1, PBP3 (Pseudomonas aeruginosa, UniProt G3XD46). In words: Bocillin-FL competition in whole cells. The class given is cell-based. Further details: gene ftsI; native full-length protein in intact P. aeruginosa PAO1 cells, Bocillin-FL labelled. Conditions: intact PAO1 cells, 30 min incubation, covalent.
For another assay, the target named is T2, PBP2 (Pseudomonas aeruginosa, UniProt G3XCV7).
T2 construct: gene pbpA; native full-length protein in intact P. aeruginosa PAO1 cells, Bocillin-FL labelled
T2 sequence (G3XCV7 1-646): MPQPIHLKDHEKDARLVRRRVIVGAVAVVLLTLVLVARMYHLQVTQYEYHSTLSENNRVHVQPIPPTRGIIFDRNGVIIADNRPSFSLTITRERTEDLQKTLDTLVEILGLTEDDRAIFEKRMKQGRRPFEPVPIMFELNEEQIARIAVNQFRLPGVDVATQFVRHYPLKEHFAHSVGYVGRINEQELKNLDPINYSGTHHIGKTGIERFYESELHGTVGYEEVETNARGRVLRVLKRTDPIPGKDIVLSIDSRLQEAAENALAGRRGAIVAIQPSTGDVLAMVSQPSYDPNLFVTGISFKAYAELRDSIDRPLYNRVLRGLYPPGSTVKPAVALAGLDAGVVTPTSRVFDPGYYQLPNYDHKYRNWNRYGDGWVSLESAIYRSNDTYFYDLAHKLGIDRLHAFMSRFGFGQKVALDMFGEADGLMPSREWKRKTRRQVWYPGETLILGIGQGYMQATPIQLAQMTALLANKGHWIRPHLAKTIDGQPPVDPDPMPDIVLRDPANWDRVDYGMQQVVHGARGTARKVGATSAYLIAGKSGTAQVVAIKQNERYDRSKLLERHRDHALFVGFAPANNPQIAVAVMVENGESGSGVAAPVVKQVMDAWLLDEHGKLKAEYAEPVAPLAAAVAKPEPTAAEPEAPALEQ
The assay is described as follows: Bocillin-FL competition in whole cells. The class given is cell-based. Conditions: intact PAO1 cells, 30 min incubation, covalent. An excerpt: Bocillin-FL competition in whole cells on PBP2

A further assay deals with T3, PBP4 (Pseudomonas aeruginosa, UniProt Q9HZG1).
T3 construct: gene PA3047; native full-length protein in intact P. aeruginosa PAO1 cells, Bocillin-FL labelled
The assay is described as follows: Bocillin-FL competition in whole cells. The class given is cell-based. Conditions: intact PAO1 cells, 30 min incubation, covalent. An excerpt: Bocillin-FL competition in whole cells on PBP4

A further assay concerns the target T4, PBP5 (Pseudomonas aeruginosa, UniProt G3XD74).
T4 construct: gene dacC; native full-length protein in intact P. aeruginosa PAO1 cells, Bocillin-FL labelled
The assay is described as follows: Bocillin-FL competition in whole cells. Conditions: intact PAO1 cells, 30 min incubation, covalent. The class given is cell-based.

Assay [2] addresses T1, PBP3. The assay is described as follows: biochemical. Further details: gene ftsI; native protein in lysed PAO1; species or system Pseudomonas aeruginosa PAO1; Bocillin FL labelling competition of PBPs in lysed P. aeruginosa PAO1. An excerpt: Abstract Objectives The main objective of the present work was to dissect the interplay between penicillin-binding protein (PBP) occupancy, ampC transcriptional dynamics, and β-lactamase activity in Pseudomonas aeruginosa. Methods Using wild-type PAO1 and isogenic LMW-PBP knockout mutants (PAOΔdacB, PAOΔdacBdacC, and PAOΔdacBdacCpbpG), we assessed ampC induction following exposure to 18 β-lactams and β-lactamase inhibitors. PBP binding (IC50) was quantified via Bocillin-FL labelling. AmpC mRNA levels were measured by qRT-PCR, and β-lactamase activity was determined in crude extracts, periplasmic and extracellular fractions using nitrocefin and cefalotin substrates. […] Binding to PBP4 is a recognized trigger for ampC induction.

The next assay addresses T5, AmpC (Pseudomonas aeruginosa, UniProt P24735).
T5 construct: native chromosomal enzyme in crude extract of constitutive AmpC-overproducing triple LMW-PBP knockout
In words: inhibition of nitrocefin / cefalotin hydrolysis in crude extract. The class given is biochemical. Conditions: crude extract of PAOΔdacBdacCpbpG; 500 mg/L in Results (Methods: 50 and 100 μM); both substrates.

Where [3] appears, read: read-out: Drug mg/L^a / MEC / SUL.
Where [4] appears, read: read-out: Drug mg/L^a / ETP / CAZ.
Setting [5] is: read-out: Drug mg/L^a / TIC / REL.
[6] abbreviates: read-out: Drug mg/L^a / DOR / AVI.
Where [7] appears, read: read-out: Drug mg/L^a / MEM / FOX.
Setting [8] is: read-out: Drug mg/L^a / PIP / CLV.
[9] abbreviates: read-out: Drug mg/L^a / CAR / TZB.

Read-outs that look alike come from different tables or passages of the source.

T1 sequence (G3XD46 whole entry): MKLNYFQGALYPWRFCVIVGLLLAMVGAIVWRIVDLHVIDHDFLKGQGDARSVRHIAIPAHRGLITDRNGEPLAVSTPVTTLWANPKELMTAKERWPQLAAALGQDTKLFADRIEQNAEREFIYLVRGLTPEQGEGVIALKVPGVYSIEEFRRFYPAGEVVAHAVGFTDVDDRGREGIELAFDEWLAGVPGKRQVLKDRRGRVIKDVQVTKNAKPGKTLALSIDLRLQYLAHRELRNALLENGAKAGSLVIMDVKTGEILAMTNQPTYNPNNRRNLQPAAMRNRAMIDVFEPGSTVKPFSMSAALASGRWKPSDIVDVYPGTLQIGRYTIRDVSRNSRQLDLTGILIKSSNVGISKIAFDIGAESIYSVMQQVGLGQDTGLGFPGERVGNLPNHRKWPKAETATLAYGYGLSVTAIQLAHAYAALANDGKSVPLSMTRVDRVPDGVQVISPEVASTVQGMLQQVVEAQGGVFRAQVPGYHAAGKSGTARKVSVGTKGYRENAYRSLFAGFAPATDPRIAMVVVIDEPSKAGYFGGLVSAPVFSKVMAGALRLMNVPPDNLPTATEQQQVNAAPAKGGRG
T4 sequence (G3XD74 entry or part of it): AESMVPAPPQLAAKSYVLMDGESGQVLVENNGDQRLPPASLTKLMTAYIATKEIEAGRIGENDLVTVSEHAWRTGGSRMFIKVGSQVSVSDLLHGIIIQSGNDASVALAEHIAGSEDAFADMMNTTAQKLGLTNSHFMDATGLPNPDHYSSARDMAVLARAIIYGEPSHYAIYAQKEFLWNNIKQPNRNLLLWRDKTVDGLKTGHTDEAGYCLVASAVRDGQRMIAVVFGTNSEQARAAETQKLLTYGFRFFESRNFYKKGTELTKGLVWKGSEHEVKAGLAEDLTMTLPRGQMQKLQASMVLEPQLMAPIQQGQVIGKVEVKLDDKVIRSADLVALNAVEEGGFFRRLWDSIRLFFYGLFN
T3 sequence (Q9HZG1 entry or part of it): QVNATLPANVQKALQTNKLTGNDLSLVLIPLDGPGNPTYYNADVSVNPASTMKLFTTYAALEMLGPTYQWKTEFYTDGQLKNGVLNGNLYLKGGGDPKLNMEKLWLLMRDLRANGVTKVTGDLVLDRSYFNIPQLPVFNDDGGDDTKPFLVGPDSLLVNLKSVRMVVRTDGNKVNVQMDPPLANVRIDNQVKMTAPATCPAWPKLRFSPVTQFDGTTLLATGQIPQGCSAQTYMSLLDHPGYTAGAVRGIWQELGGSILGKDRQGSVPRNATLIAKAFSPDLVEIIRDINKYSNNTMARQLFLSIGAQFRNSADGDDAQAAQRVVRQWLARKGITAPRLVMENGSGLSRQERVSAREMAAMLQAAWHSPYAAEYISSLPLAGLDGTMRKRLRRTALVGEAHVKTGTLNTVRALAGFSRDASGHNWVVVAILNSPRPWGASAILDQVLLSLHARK
T5 sequence (P24735 27-397): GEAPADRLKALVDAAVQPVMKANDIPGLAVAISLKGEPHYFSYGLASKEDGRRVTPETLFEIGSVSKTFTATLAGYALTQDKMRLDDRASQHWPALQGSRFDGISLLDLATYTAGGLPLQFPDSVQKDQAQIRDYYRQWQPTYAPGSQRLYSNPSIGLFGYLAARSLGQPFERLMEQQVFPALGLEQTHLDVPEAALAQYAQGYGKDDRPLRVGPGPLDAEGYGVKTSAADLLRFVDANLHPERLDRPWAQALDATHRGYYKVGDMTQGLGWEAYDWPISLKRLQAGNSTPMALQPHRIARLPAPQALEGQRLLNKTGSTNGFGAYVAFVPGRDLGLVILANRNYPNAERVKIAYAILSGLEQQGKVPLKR

`CC1(C)[C@H](C(=O)O)N2C(=O)C[C@H]2S1(=O)=O` [sulbactam]: the IC50 on PBP3 [1] (setting [3]) is 9.09 µM; at PBP2 (setting [3]) it was 19.2 µM; on PBP4 (setting [3]) it was 12.4 µM; on PBP5 (setting [3]), 8.96 µM.

With `C[C@@H](O)[C@H]1C(=O)N2C(C(=O)O)=C(SCCN=CN)C[C@H]12` [imipenem], the IC50 is 0.2 µM at PBP2 (read-out: IPM / FEP), 0.0334 µM on PBP4 (read-out: IPM / FEP) and 0.2 µM at PBP5 (read-out: IPM / FEP).

`CC(C)(O/N=C(\C(=O)N[C@@H]1C(=O)N2C(C(=O)[O-])=C(C[n+]3ccccc3)CS[C@H]12)c1csc(N)n1)C(=O)O` [ceftazidime]: the IC50 is 0.567 µM on PBP3 [1] (setting [4]), 2.73 µM at PBP2 (setting [4]), 0.585 µM at PBP4 (setting [4]) and 0.11 µM at PBP3 [2].

Take `C[C@@H](O)[C@H]1C(=O)N2C(C(=O)O)=C(S[C@@H]3CN[C@H](C(=O)Nc4cccc(C(=O)O)c4)C3)[C@H](C)[C@H]12` [ertapenem]: the IC50 at PBP3 [1] (setting [4]) is 1.14 µM; at PBP2 (setting [4]) it was 0.673 µM; at PBP4 (setting [4]) it was 0.105 µM; on PBP3 [2] it was 0.4 µM; on PBP5 (setting [4]) it was 1.7 µM.

`CC1(C)S[C@@H]2[C@H](NC(=O)[C@H](C(=O)O)c3ccsc3)C(=O)N2[C@H]1C(=O)O` [ticarcillin]: the IC50 at PBP3 [1] (setting [5]) was 6.4 µM; at PBP2 (setting [5]), 51.5 µM; on PBP5 (setting [5]), 682 µM.

`CO/N=C(\C(=O)N[C@@H]1C(=O)N2C(C(=O)[O-])=C(C[N+]3(C)CCCC3)CS[C@H]12)c1csc(N)n1` [cefepime]: the IC50 at PBP3 [1] (read-out: IPM / FEP) was 0.437 µM; on PBP2 (read-out: IPM / FEP), 2 µM; on PBP4 (read-out: IPM / FEP), 0.52 µM.

On to `NC(=O)[C@@H]1CC[C@@H]2CN1C(=O)N2OS(=O)(=O)O` [avibactam], for which the IC50 was 38.8 µM at PBP3 [1] (setting [6]), 23.7 µM at PBP2 (setting [6]), 9.01 µM on PBP4 (setting [6]) and 12.4 µM on PBP5 (setting [6]).

As for `C[C@@H](O)[C@H]1C(=O)N2C(C(=O)O)=C(S[C@@H]3CN[C@H](C(=O)N(C)C)C3)[C@H](C)[C@H]12` [meropenem], the IC50 at PBP2 (setting [7]) was 3.99 µM; at PBP4 (setting [7]) it was 0.0522 µM; at PBP5 (setting [7]), 3.65 µM.

`CCN1CCN(C(=O)N[C@@H](C(=O)N[C@@H]2C(=O)N3[C@@H]2SC(C)(C)[C@@H]3C(=O)O)c2ccccc2)C(=O)C1=O` [piperacillin]: the IC50 is 1.7 µM at PBP3 [1] (setting [8]); 4.21 µM on PBP2 (setting [8]); 3.23 µM on PBP4 (setting [8]); 0.0966 µM on PBP3 [2]; 6.09 µM on PBP5 (setting [8]).

Turning to `CO[C@@]1(NC(=O)Cc2cccs2)C(=O)N2C(C(=O)O)=C(COC(N)=O)CS[C@@H]21` [cefoxitin], the IC50 is 5390 µM at PBP3 [1] (setting [7]), 4750 µM at PBP2 (setting [7]), 47.7 µM on PBP4 (setting [7]) and 12.4 µM at PBP5 (setting [7]). In addition, on PBP3 [2] (lysed PAO1, covalent), the “FOX IC50” value stood at 10.7 µg/mL.

For the compound `C[C@]1(Cn2ccnn2)[C@H](C(=O)O)N2C(=O)C[C@H]2S1(=O)=O` [tazobactam], the IC50 on PBP3 [1] (setting [9]) is 13.4 µM; at PBP2 (setting [9]), 11.9 µM; at PBP4 (setting [9]), 15.9 µM; on PBP5 (setting [9]) it was 15.9 µM.

Consider `Cc1onc(-c2ccccc2Cl)c1C(=O)N[C@@H]1C(=O)N2[C@@H]1SC(C)(C)[C@@H]2C(=O)O` [cloxacillin], for which, on AmpC, the “% reduction in hydrolysis rate at 500 mg/L” value was over 95%.

For the compound `CC1(C)S[C@@H]2[C@H](NC(=O)C(C(=O)O)c3ccccc3)C(=O)N2[C@H]1C(=O)O` (some centres unmarked) [carbenicillin], the IC50 at PBP3 [1] (setting [9]) was 9.01 µM; at PBP2 (setting [9]) it was 85.4 µM; at PBP5 (setting [9]), 129 µM.

For `CC1(C)S[C@@H]2[C@H](N=CN3CCCCCC3)C(=O)N2[C@H]1C(=O)O` [mecillinam], the values for the IC50 at PBP2 (setting [3]), at PBP4 (setting [3]) and at PBP5 (setting [3]) were 870 µM, 648 µM and 1300 µM, respectively.

As to `C[C@@H](O)[C@H]1C(=O)N2C(C(=O)O)=C(S[C@@H]3CN[C@H](CNS(N)(=O)=O)C3)[C@H](C)[C@H]12` [doripenem], the IC50 is 1.05 µM at PBP3 [1] (setting [6]); 0.69 µM at PBP2 (setting [6]); 0.0476 µM on PBP4 (setting [7]); 0.309 µM at PBP3 [2]; 2.14 µM at PBP5 (setting [6]).

Consider `O=C(O)[C@H]1/C(=C/CO)O[C@@H]2CC(=O)N21` [clavulanic acid], for which the IC50 at PBP3 [1] (setting [8]) was 30.5 µM; on PBP2 (setting [8]), 56.2 µM; at PBP4 (setting [8]) it was 21.8 µM; on PBP5 (setting [8]), 18.1 µM.

`C[C@H]1[C@H](NC(=O)/C(=N\OC(C)(C)C(=O)O)c2csc(N)n2)C(=O)N1S(=O)(=O)O` [aztreonam]: the IC50 was 1.75 µM on PBP3 [1] (read-out: Drug mg/L^a / ATM); 17 µM at PBP2 (read-out: Drug mg/L^a / ATM); 3.1 µM at PBP4 (read-out: Drug mg/L^a / ATM); 0.184 µM at PBP3 [2]; 10.4 µM at PBP5 (read-out: Drug mg/L^a / ATM).

As to `O=C(NC1CCNCC1)[C@@H]1CC[C@@H]2CN1C(=O)N2OS(=O)(=O)O` [relebactam], the IC50 was 12.2 µM at PBP3 [1] (setting [5]), 17.1 µM at PBP2 (setting [5]), 24.4 µM on PBP4 (setting [5]) and 81.7 µM on PBP5 (setting [5]).
